Test results reported in PubChem BioAssay (NCI).
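Interpolation was linear, between the two tested concentrations surrounding the appropriate level; five concentrations were tested over 48 hours in 96-well plates. The concentration for full growth arrest is given as TGI.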

What was measured:
Assay in all cases: NCI tumour cell line growth inhibition, 48 h
SF-268 CNS = system: SF-268 CNS
HOP-92 NSCLC = system: HOP-92 NSCLC
SR leukemia = system: SR leukemia
SK-MEL-5 melanoma = system: SK-MEL-5 melanoma
OVCAR-3 ovarian = system: OVCAR-3 ovarian
PC-3 prostate = system: PC-3 prostate
LOX IMVI melanoma = system: LOX IMVI melanoma
IGROV1 ovarian = system: IGROV1 ovarian
MOLT-4 leukemia = system: MOLT-4 leukemia
A498 renal = system: A498 renal
MCF7 breast = system: MCF7 breast
CCRF-CEM leukemia = system: CCRF-CEM leukemia
MDA-MB-435 = system: MDA-MB-435
HOP-62 NSCLC = system: HOP-62 NSCLC
ACHN renal = system: ACHN renal
786-0 renal = system: 786-0 renal
RPMI-8226 leukemia = system: RPMI-8226 leukemia
SNB-75 CNS = system: SNB-75 CNS
K-562 leukemia = system: K-562 leukemia
NCI-H23 lung = system: NCI-H23 lung
COLO 205 colon = system: COLO 205 colon
SK-MEL-28 melanoma = system: SK-MEL-28 melanoma
SF-295 CNS = system: SF-295 CNS
KM12 colon = system: KM12 colon
SK-OV-3 ovarian = system: SK-OV-3 ovarian
SNB-19 CNS = system: SNB-19 CNS
HT29 colon = system: HT29 colon
OVCAR-8 ovarian = system: OVCAR-8 ovarian
RXF 393 renal = system: RXF 393 renal
MALME-3M melanoma = system: MALME-3M melanoma
EKVX NSCLC = system: EKVX NSCLC
NCI-H522 lung = system: NCI-H522 lung
BT-549 breast = system: BT-549 breast
SN12C renal = system: SN12C renal
MDA-MB-231 breast = system: MDA-MB-231 breast
A549 NSCLC = system: A549 NSCLC
SK-MEL-2 melanoma = system: SK-MEL-2 melanoma
HL-60(TB) leukemia = system: HL-60(TB) leukemia
HS 578T breast = system: HS 578T breast
U251 CNS = system: U251 CNS
CAKI-1 renal = system: CAKI-1 renal
SF-539 CNS = system: SF-539 CNS
DU-145 prostate = system: DU-145 prostate
UACC-62 melanoma = system: UACC-62 melanoma
TK-10 renal = system: TK-10 renal
OVCAR-5 ovarian = system: OVCAR-5 ovarian
M14 melanoma = system: M14 melanoma
NCI/ADR-RES ovarian = system: NCI/ADR-RES ovarian
UO-31 renal = system: UO-31 renal
T-47D breast = system: T-47D breast
MDA-N = system: MDA-N
HCT-116 colon = system: HCT-116 colon
OVCAR-4 ovarian = system: OVCAR-4 ovarian
HCT-15 colon = system: HCT-15 colon
NCI-H460 lung = system: NCI-H460 lung
UACC-257 melanoma = system: UACC-257 melanoma
SW-620 colon = system: SW-620 colon
NCI-H226 lung = system: NCI-H226 lung
HCC-2998 colon = system: HCC-2998 colon

O=C(/C=C/c1ccc(O)cc1)c1cc(-c2cc(CCC(=O)c3ccc(O)cc3O)ccc2O)c(O)cc1O
TGI (SF-268 CNS): > 50 µM | TGI (HOP-92 NSCLC): > 50 µM | TGI (SR leukemia): 29.5 µM | TGI (SK-MEL-5 melanoma): > 50 µM | TGI (OVCAR-3 ovarian): > 50 µM | TGI (PC-3 prostate): > 50 µM | TGI (LOX IMVI melanoma): > 50 µM | TGI (IGROV1 ovarian): > 50 µM | TGI (MOLT-4 leukemia): > 50 µM | TGI (A498 renal): > 50 µM | TGI (MCF7 breast): > 50 µM | TGI (CCRF-CEM leukemia): 43.6 µM | TGI (MDA-MB-435): > 50 µM | TGI (HOP-62 NSCLC): > 50 µM | TGI (ACHN renal): > 50 µM | TGI (786-0 renal): > 50 µM | TGI (RPMI-8226 leukemia): > 50 µM | TGI (SNB-75 CNS): 41.7 µM | TGI (K-562 leukemia): 48.4 µM | TGI (NCI-H23 lung): > 50 µM | TGI (COLO 205 colon): 22.6 µM | TGI (SK-MEL-28 melanoma): > 50 µM | TGI (SF-295 CNS): > 50 µM | TGI (KM12 colon): > 50 µM | TGI (SK-OV-3 ovarian): 42.6 µM | TGI (SNB-19 CNS): > 50 µM | TGI (HT29 colon): 35.8 µM | TGI (OVCAR-8 ovarian): > 50 µM | TGI (RXF 393 renal): > 50 µM | TGI (MALME-3M melanoma): > 50 µM | TGI (EKVX NSCLC): > 50 µM | TGI (NCI-H522 lung): > 50 µM | TGI (BT-549 breast): > 50 µM | TGI (SN12C renal): > 50 µM | TGI (MDA-MB-231 breast): > 50 µM | TGI (A549 NSCLC): > 50 µM | TGI (SK-MEL-2 melanoma): > 50 µM | TGI (HL-60(TB) leukemia): > 50 µM | TGI (HS 578T breast): > 50 µM | TGI (U251 CNS): > 50 µM | TGI (CAKI-1 renal): > 50 µM | TGI (SF-539 CNS): 24.8 µM | TGI (DU-145 prostate): > 50 µM | TGI (UACC-62 melanoma): > 50 µM | TGI (TK-10 renal): > 50 µM | TGI (OVCAR-5 ovarian): > 50 µM | TGI (M14 melanoma): > 50 µM | TGI (NCI/ADR-RES ovarian): > 50 µM | TGI (UO-31 renal): > 50 µM | TGI (T-47D breast): > 50 µM | TGI (MDA-N): > 50 µM | TGI (HCT-116 colon): > 50 µM | TGI (OVCAR-4 ovarian): > 50 µM | TGI (HCT-15 colon): > 50 µM | TGI (NCI-H460 lung): > 50 µM | TGI (UACC-257 melanoma): > 50 µM | TGI (SW-620 colon): > 50 µM

CN(N=O)C(=O)Nc1ccc(C(=O)O)cc1
TGI (SF-268 CNS): > 100 µM | TGI (NCI-H226 lung): > 100 µM | TGI (HOP-92 NSCLC): > 100 µM | TGI (SR leukemia): > 100 µM | TGI (SK-MEL-5 melanoma): > 100 µM | TGI (OVCAR-3 ovarian): > 100 µM | TGI (PC-3 prostate): > 100 µM | TGI (LOX IMVI melanoma): > 100 µM | TGI (IGROV1 ovarian): > 100 µM | TGI (MOLT-4 leukemia): > 100 µM | TGI (A498 renal): > 100 µM | TGI (MCF7 breast): > 100 µM | TGI (CCRF-CEM leukemia): > 100 µM | TGI (MDA-MB-435): > 100 µM | TGI (HOP-62 NSCLC): > 100 µM | TGI (ACHN renal): > 100 µM | TGI (786-0 renal): > 100 µM | TGI (RPMI-8226 leukemia): > 100 µM | TGI (SNB-75 CNS): > 100 µM | TGI (K-562 leukemia): > 100 µM | TGI (NCI-H23 lung): > 100 µM | TGI (COLO 205 colon): > 100 µM | TGI (SK-MEL-28 melanoma): > 100 µM | TGI (SF-295 CNS): > 100 µM | TGI (KM12 colon): > 100 µM | TGI (SK-OV-3 ovarian): > 100 µM | TGI (SNB-19 CNS): > 100 µM | TGI (HT29 colon): > 100 µM | TGI (OVCAR-8 ovarian): > 100 µM | TGI (RXF 393 renal): > 100 µM | TGI (EKVX NSCLC): > 100 µM | TGI (NCI-H522 lung): > 100 µM | TGI (BT-549 breast): > 100 µM | TGI (SN12C renal): > 100 µM | TGI (HCC-2998 colon): > 100 µM | TGI (MDA-MB-231 breast): > 100 µM | TGI (A549 NSCLC): > 100 µM | TGI (SK-MEL-2 melanoma): > 100 µM | TGI (HL-60(TB) leukemia): > 100 µM | TGI (HS 578T breast): > 100 µM | TGI (U251 CNS): > 100 µM | TGI (CAKI-1 renal): > 100 µM | TGI (SF-539 CNS): > 100 µM | TGI (DU-145 prostate): > 100 µM | TGI (UACC-62 melanoma): > 100 µM | TGI (TK-10 renal): > 100 µM | TGI (OVCAR-5 ovarian): > 100 µM | TGI (M14 melanoma): > 100 µM | TGI (NCI/ADR-RES ovarian): > 100 µM | TGI (UO-31 renal): > 100 µM | TGI (T-47D breast): > 100 µM | TGI (MDA-N): > 100 µM | TGI (HCT-116 colon): > 100 µM | TGI (OVCAR-4 ovarian): > 100 µM | TGI (HCT-15 colon): > 100 µM | TGI (NCI-H460 lung): > 100 µM | TGI (UACC-257 melanoma): > 100 µM | TGI (SW-620 colon): > 100 µM

COC(=O)C1=CO[C@@H](OC2OC(CO)C(O)C(O)C2O)[C@@H]2[C@H](C)[C@@H](O)[C@@H](O)[C@]12O (stereo not given in full)
TGI (SF-268 CNS): > 100 µM | TGI (NCI-H226 lung): > 100 µM | TGI (HOP-92 NSCLC): > 100 µM | TGI (SR leukemia): > 100 µM | TGI (SK-MEL-5 melanoma): > 100 µM | TGI (OVCAR-3 ovarian): > 100 µM | TGI (PC-3 prostate): > 100 µM | TGI (LOX IMVI melanoma): > 100 µM | TGI (IGROV1 ovarian): > 100 µM | TGI (MOLT-4 leukemia): > 100 µM | TGI (A498 renal): > 100 µM | TGI (MCF7 breast): > 100 µM | TGI (MDA-MB-435): > 100 µM | TGI (HOP-62 NSCLC): > 100 µM | TGI (ACHN renal): > 100 µM | TGI (786-0 renal): > 100 µM | TGI (RPMI-8226 leukemia): > 100 µM | TGI (SNB-75 CNS): > 100 µM | TGI (NCI-H23 lung): > 100 µM | TGI (COLO 205 colon): > 100 µM | TGI (SK-MEL-28 melanoma): > 100 µM | TGI (SF-295 CNS): > 100 µM | TGI (KM12 colon): > 100 µM | TGI (SK-OV-3 ovarian): > 100 µM | TGI (SNB-19 CNS): > 100 µM | TGI (HT29 colon): > 100 µM | TGI (OVCAR-8 ovarian): > 100 µM | TGI (RXF 393 renal): > 100 µM | TGI (MALME-3M melanoma): > 100 µM | TGI (EKVX NSCLC): > 100 µM | TGI (NCI-H522 lung): > 100 µM | TGI (BT-549 breast): > 100 µM | TGI (SN12C renal): > 100 µM | TGI (HCC-2998 colon): > 100 µM | TGI (MDA-MB-231 breast): > 100 µM | TGI (A549 NSCLC): > 100 µM | TGI (SK-MEL-2 melanoma): > 100 µM | TGI (HL-60(TB) leukemia): > 100 µM | TGI (HS 578T breast): > 100 µM | TGI (U251 CNS): > 100 µM | TGI (CAKI-1 renal): > 100 µM | TGI (SF-539 CNS): > 100 µM | TGI (DU-145 prostate): > 100 µM | TGI (UACC-62 melanoma): > 100 µM | TGI (TK-10 renal): > 100 µM | TGI (OVCAR-5 ovarian): > 100 µM | TGI (M14 melanoma): > 100 µM | TGI (NCI/ADR-RES ovarian): > 100 µM | TGI (UO-31 renal): > 100 µM | TGI (T-47D breast): > 100 µM | TGI (MDA-N): > 100 µM | TGI (HCT-116 colon): > 100 µM | TGI (HCT-15 colon): > 100 µM | TGI (UACC-257 melanoma): > 100 µM | TGI (SW-620 colon): > 100 µM
